What was measured:
[1] = tested on: retinal vascular development; assay: Retinal vascular development in neonatal mice, fluorescein-dextran perfused retinal flat mounts; assay type: in vivo, newborn C57/BL6J mice; conditions: 100 mg/kg daily subcutaneous
Procedure: Litters of newborn C57/BL6J mice (neonatal mice) are divided into treatment and control groups which received daily subcutaneous injections of 100 mg/kg of the drug or vehicle, respectively. At 7 or 10 days of age, the mice are anesthetized with ether, and perfused with 1 ml of phosphate-buffered saline containing 50 mg/ml of fluorescein-labeled dextran (2x10^6 average mw, Sigma, St. Louis, MO) as described by Tobe et al., Evolution of Neovascularization in Mice with Overexpression of VEGF in Photoreceptors, Invest. Ophthalmol. Vis. Sci. 39, 180-188 (1998). The eyes are removed and fixed for 1 hour in 10% phosphate-buffered formalin. The cornea and lens are removed and the entire retina is carefully dissected from the eyecup. Radially cuts are made from the edge of the retina to the equator in all 4 quadrants, and the retina is flat-mounted in Aquamount with photoreceptors facing upward. The flat mounts are examined by fluorescence microscopy, and the images are digitized using a 3 CCD color video camera and a frame grabber. Image-Pro™ Plus is used to measure the distance from the center of the optic nerve to the leading front of developing retinal vessels in each quadrant and the mean is used as a single experimental value.

[2] = tested on: retinal neovascularization; assay: Oxygen-induced ischemic retinopathy in mice, lectin-stained retinal sections with image analysis; assay type: in vivo, C57/BL6J mice; conditions: for clumps of neovascularization on the surface of the retina: compared to vehicle-treated control mice
Procedure: Ischemic retinopathy is produced in C57/BL6J mice by a method described by Smith et al., Oxygen-induced Retinopathy in the Mouse, Invest. Ophthalmol. Vis. Sci. 35, 101-111 (1994). Seven-day-old mice and their mothers are placed in an airtight incubator and exposed to an atmosphere of 75 ± 3% oxygen for 5 days. Incubator temperature is maintained at 23 ± 2°C, and oxygen is measured every 8 hours with an oxygen analyzer. After 5 days, the mice are removed from the incubator, placed in room air, and subjected to a drug treatment. […] Vehicle (1% DMSO) or vehicle containing various concentrations of the drug (volume = 10 µl per gram body weight) is placed in the stomach by gavage.
(§1) After 5 days of treatment, the mice are sacrificed, eyes are rapidly removed and frozen in optimum cutting temperature embedding compound (OCT; Miles Diagnostics, Elkhart, IN) or fixed in 10% phosphate-buffered formalin and embedded in paraffin. Adult C57BL6J mice are also treated by gavage with the drug or vehicle and after 5 days, they are sacrificed and their eyes are processed for frozen or paraffin sections.
Slides are incubated in methanol/H2O2 for 10 minutes at 4°C, washed with 0.05 M Tris-buffered saline, pH 7.6 (TBS), and incubated for 30 minutes in 10% normal porcine serum. Slides are incubated 2 hours at room temperature with biotinylated lectin and after rinsing with 0.05M TBS, they are incubated with avidin coupled to peroxidase (Vector Laboratories) for 45 minutes at room temperature. After being washed for 10 minutes with 0.05 M TBS, slides are incubated with diaminobenzidine to give a brown reaction product. Some slides are counterstained with hematoxyln and all were mounted with Cytoseal.
To perform quantitative assessments, 10 µm serial sections are cut through half of each eye and sections roughly 50-60 µm apart are stained with lectin, providing 13 sections per eye for analysis. Lectin-stained sections are examined with an Axioskop microscope (Zeiss, Thornwood, NY) and images are digitized using a 3 CCD color video camera (IK-TU40A, Toshiba, Tokyo, Japan) and a frame grabber. Image-Pro Plus software (Media Cybernetics, Silver Spring, MD) is used to delineate lectin-stained cells on the surface of the retina and their area is measured. The mean of the 13 measurements from each eye is used as a single experimental value.

[3] = tested on: choroidal neovascularization; assay: Laser-induced rupture of Bruch's membrane, choroidal neovascularization in mice; assay type: in vivo, C57BL/6J mice; conditions: 400 mg/kg/day orally by gavage
Procedure: C57BL/6J mice are treated in accordance with the Association for Research in Vision and Ophthalmology resolution for the treatment of animals. […] J Path, in press. Briefly, 4 to 5 week old male C57BL/6J mice are anesthetized with ketamine hydrochloride (100 mg/kg body weight) and the pupils are dilated with 1% tropicamide. Three bums of krypton laser photocoagulation (100 µm spot size, 0.1 seconds duration, 150 mW) are delivered to each retina using the slit lamp delivery system of a Coherent Model 920 Photocoagulator and a hand held cover slide as a contact lens. Bums are performed in the 9, 12, and 3 o'clock positions of the posterior pole of the retina. Production of a bubble at the time of laser, which indicates rupture of Bruch's membrane, is an important factor in obtaining CNV, so only mice in which a bubble is produced for all three bums are included. […] After 14 days, the mice are killed with an overdose of pentobarbital sodium, and their eyes are rapidly removed and frozen in optimal cutting temperature embedding compound (OCT). Frozen serial sections (10 µm) are cut through the entire extent of each burn and histochemically stained with biotinylated griffonia simplicifolia lectin B4 (Vector Laboratories, Burlingame, CA), which selectively binds to endothelial cells. Slides are incubated in methanol/H2O2 for 30 minutes at 4°C, washed with 0.05 M Tris-buffered saline, pH 7.4 (TBS), and incubated for 30 minutes in 10% normal swine serum. Slides are rinsed with 0.05M TBS and incubated 2 hours at 37°C with biotinylated lectin. After being rinsed with 0.05M TBS, slides are incubated with Streptavidin-phosphatase (Kirkegaard and Perry Laboratories, Cabin John, MD) for 30 minutes at room temperature. […]
To perform quantitative assessments, lectin-stained sections are examined with an Axioskop microscope (Zeiss, Thornwood, NY) and images are digitized using a 3 CCD color video camera (IK-TU40A, Toshiba, Tokyo, Japan) and a frame grabber. […]

[4] = tested on: endothelial cells of mature vessels; assay: Effect on mature retinal vessels of adult mice, endothelial staining with image analysis; assay type: in vivo, Adult C57BL6J mice; conditions: 600 mg/kg by gavage once a day for 5 days
Procedure: as §1

[5] = 300 mg/kg twice a day by gavage

CO[C@@H]1[C@H](N(C)C(=O)c2ccccc2)C[C@H]2O[C@]1(C)n1c3ccccc3c3c4c(c5c6ccccc6n2c5c31)C(=O)NC4 [NBS, N-benzoyl-staurosporine]
extension of retinal vessels ([1]; at 7 days of age): only extend slightly more than halfway to the periphery
extension of superficial capillary bed ([1]; at 10 days of age): has not yet reached the edge of the retina
endothelial cell staining on and in the retinas (image analysis) ([2]; 60 mg/kg once a day, compared to vehicle-treated mice): significantly less
endothelial staining within the retina ([2]; 60 mg/kg twice a day by gavage): some decrease
clumps of neovascularization on the surface of the retina ([2]; 60 mg/kg twice a day by gavage): less than clumps in the retina of the vehicle-treated control mice
endothelial staining within the retina [2, 5]: some decrease
clumps of neovascularization on the surface of the retina [2, 5]: less than clumps in the retina of the vehicle-treated control mice
endothelial cell staining in the inner nuclear layer and outer plexiform layer ([2]; 600 mg/kg once a day for 5 days): striking absence
endothelial cell staining on the surface and within the retina ([2]; 600 mg/kg once a day for 5 days by gavage, compared to vehicle-treated mice): dramatic decrease
endothelial cell staining within the retina ([2]; 600 mg/kg once a day for 5 days, compared to nonischemic mice): less than that of the nonischemic mice
endothelial cell staining on and in the retinas (image analysis) ([2]; 600 mg/kg once a day, compared to vehicle-treated mice): significantly less
integrated area of lectin staining per lesion ([3]; 14 days, vehicle alone 0.0695621 ± 0.0073960 mm^2, p=0.004): 0.009018 ± 0.001754 mm^2
appearance of overlying retinal vessels ([3]; two weeks after laser): appear normal
choroidal neovascularization at the site of each laser-induced rupture of Bruch's membrane ([3]; two weeks after laser): very little if any
toxicity to endothelial cells of mature vessels [4]: not toxic
total area of endothelial staining in the retina or the appearance of retinal vessels ([4]; compared to vehicle-treated mice): no difference
